# Test results reported in patent US12150995B2, “IRAK degraders and uses thereof” (Kymera Therapeutics, Inc., priority 2020, dated 2024).
# Biological target: T1, IRAK4 (Homo sapiens, UniProt Q9NWZ3)
# T1 construct: endogenous in cells; host or cells: OCI-LY10
# T1 sequence (Q9NWZ3 1-460): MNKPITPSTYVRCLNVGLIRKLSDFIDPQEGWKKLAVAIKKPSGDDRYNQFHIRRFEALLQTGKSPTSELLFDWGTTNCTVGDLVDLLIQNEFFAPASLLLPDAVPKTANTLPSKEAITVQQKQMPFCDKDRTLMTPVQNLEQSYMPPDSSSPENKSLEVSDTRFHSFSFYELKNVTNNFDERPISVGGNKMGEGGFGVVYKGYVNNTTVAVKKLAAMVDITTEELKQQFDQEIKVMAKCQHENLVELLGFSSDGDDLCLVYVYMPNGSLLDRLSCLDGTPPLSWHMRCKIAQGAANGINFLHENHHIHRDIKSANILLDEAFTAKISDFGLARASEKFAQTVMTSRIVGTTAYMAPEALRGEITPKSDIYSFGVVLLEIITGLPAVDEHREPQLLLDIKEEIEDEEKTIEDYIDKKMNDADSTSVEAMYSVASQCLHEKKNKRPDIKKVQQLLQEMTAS
# Assay: IRAK4 MSD Degradation in OCI-LY10
# Format: cell-based
# Settings: OCI-LY10 cells, Meso Scale Discovery, incubated 4 to 24 hours
# How it was run: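 IRAK4 degradation was quantified by Meso Scale electrochemiluminescence (anti-IRAK4 capture and detection antibodies) in lysates of treated OCI-LY10 cells. Compounds were dosed at 8 concentrations (1:3 dilutions, top 1 to 10 μM) for 4 to 24 h; DC50 derived by three-parameter logistic fitting.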
row,DC50,Compound
1,> 200 nM,COc1cc2nc([C@H]3CC[C@H](CN(C)CCNc4cccc5c4C(=O)N(C4CCC(=O)NC4=O)C5=O)CC3)sc2cc1NC(=O)c1cncc(Cl)c1 (some centres unmarked) [I-484]
2,> 200 nM,Cn1c(=O)n(C2CCC(=O)NC2=O)c2cccc(C3CCN(C(=O)[C@H]4CC[C@H](n5cc6cc(NC(=O)c7cccc(C(F)(F)F)n7)ncc6n5)CC4)CC3)c21 (some centres unmarked) [I-188]
3,< 10 nM,"COc1cc2nn([C@H]3CC[C@H](CN(C)[C@H]4CC[C@H](c5cccc6c5n(C)c(=O)n6C5CCC(=O)NC5=O)CC4)CC3)cc2cc1NC(=O)c1cccc(C(F)(F)F)n1 (some centres unmarked) [I-5, N-[2-[4-[[[4-[1-(2,6-dioxo-3-piperidyl)-3-methyl-2-oxo-benzimidazol-4-yl]cyclohexyl]-methyl-amino]methyl]cyclohexyl]-6-methoxy-indazol-5-yl]-6-(trifluoromethyl)pyridine-2-carboxamide]"
4,10 to 50 nM,COc1cc2nc([C@H]3CC[C@H](CN4CCN(c5cccc6c(N7CCC(=O)NC7=O)cncc56)CC4)CC3)sc2cc1NC(=O)c1cccc(C(F)(F)F)n1 [I-223]
5,> 200 nM,CN(C[C@H]1CC[C@H](n2cc3cc(NC(=O)c4cccc(C(F)(F)F)n4)ncc3n2)CC1)C1CCN(c2cccc3c(N4CCC(=O)NC4=O)cncc23)CC1 [I-79]
6,< 10 nM,COc1cc2nn([C@H]3CC[C@H](CN4CCC(c5cccc6c5n(C)c(=O)n6C5CCC(=O)NC5=O)CC4)CC3)cc2cc1NC(=O)c1cncc(Cl)c1 (some centres unmarked) [I-196]
7,< 10 nM,COc1cc2nn([C@H]3CC[C@H](CN4CCC(c5c(C)ccc6c5n(C)c(=O)n6C5CCC(=O)NC5=O)CC4)CC3)cc2cc1NC(=O)c1cncc(C#N)c1 (some centres unmarked) [I-109]
8,< 10 nM,CN(CCCCNc1cccc2c1C(=O)N(C1CCC(=O)NC1=O)C2=O)C[C@H]1CC[C@H](c2nc3cc(C(C)(C)O)c(NC(=O)c4cccc(C#N)n4)cc3s2)CC1 (some centres unmarked) [I-445]
9,> 200 nM,COc1cc2nn([C@H]3CC[C@H](CN4CCN(c5ccc(N6CCC(=O)NC6=O)cn5)CC4)CC3)cc2cc1NC(=O)c1cccc(C(F)(F)F)n1 [I-313]
10,10 to 50 nM,CC(C)Nc1c(C(=O)N[C@H]2CC[C@H](CN3CCN(c4cccc5c(N6CCC(=O)NC6=O)cncc45)CC3)CC2)cnc2sc(-c3cncs3)cc12 [I-418]
11,10 to 50 nM,COc1cc2nc(N3CCC(CN4CCN(c5cccc6c5n(C)c(=O)n6C5CCC(=O)NC5=O)CC4)CC3)sc2cc1NC(=O)c1cccc(C(F)(F)F)n1 (centres unmarked) [I-427]
12,< 10 nM,Cc1cc2nn([C@H]3CC[C@H](CN4CCN(c5cccc6c5n(C)c(=O)n6C5CCC(=O)NC5=O)C[C@@H]4C)CC3)cc2cc1NC(=O)c1cccc(C(F)(F)F)n1 (some centres unmarked) [I-301]
13,10 to 50 nM,COc1cc2nn([C@H]3CC[C@H](CN4CCC(c5cccc6c(N7CCC(=O)NC7=O)cncc56)CC4)CC3)cc2cc1NC(=O)c1cc(F)cc(C(F)(F)F)c1 [I-123]
14,10 to 50 nM,COc1cc2nn([C@H]3CC[C@H](CN4C[C@H]5C[C@@H]4CN5c4cccc5c(N6CCC(=O)NC6=O)cncc45)CC3)cc2cc1NC(=O)c1cccc(C(F)(F)F)n1 [I-155]
15,50 to 100 nM,COc1cc2nc([C@H]3CC[C@H](C(=O)N4CCN(CCCNc5cccc6c5C(=O)N(C5CCC(=O)NC5=O)C6=O)CC4)CC3)sc2cc1NC(=O)c1cccc(C(F)(F)F)n1 (some centres unmarked) [I-466]
16,< 10 nM,Cn1c(=O)n(C2CCC(=O)NC2=O)c2cccc(N3CCN(C[C@H]4CC[C@H](n5cc6cc(NC(=O)c7cccc(C(F)(F)F)n7)c(C#N)cc6n5)CC4)CC3)c21 (some centres unmarked) [I-363]
17,10 to 50 nM,O=C1CCN(c2cncc3c(C4CCN(C[C@H]5CC[C@H](n6cc7cc(NC(=O)c8cccc(C(F)(F)F)n8)ncc7n6)CC5)CC4)cccc23)C(=O)N1 [I-103]
18,50 to 100 nM,CC(C)Nc1cc(-n2ccc3cc(C#N)cnc32)ncc1C(=O)NC[C@H]1CC[C@H](CN2CCC(c3cccc4c3n(C)c(=O)n4C3CCC(=O)NC3=O)CC2)CC1 (some centres unmarked) [I-85]
19,10 to 50 nM,CC(C)Nc1cc(-n2ccc3cc(C#N)cnc32)ncc1C(=O)N[C@H]1CC[C@H](CN2CCC(c3ccc4c(N5CCC(=O)NC5=O)cncc4c3)CC2)CC1 [I-127]
20,100 to 200 nM,Cn1c(=O)n(C2CCC(=O)NC2=O)c2ccc(Cl)c(C3CCN(C[C@H]4C[C@H](n5cc6cc(NC(=O)c7cccc(C(F)(F)F)n7)ccc6n5)C4)CC3)c21 (some centres unmarked) [I-150]
21,< 10 nM,COc1cc2nn([C@H]3CC[C@H](CN4CC5(CCN(c6cccc7c6n(C)c(=O)n7C6CCC(=O)NC6=O)CC5)C4)CC3)cc2cc1NC(=O)c1cncc(C#N)c1 (some centres unmarked) [I-206]
22,< 10 nM,CC(C)(O)c1cc2nn([C@H]3CC[C@H](CN4C5CC4CN(c4cccc6c(N7CCC(=O)NC7=O)cncc46)C5)CC3)cc2cc1NC(=O)c1cccc(C(F)(F)F)n1 [I-228]

row,DC50,Compound
1,< 10 nM,CN(C[C@H]1CC[C@H](n2cc3cc(NC(=O)c4cccc(C(F)(F)F)n4)ncc3n2)CC1)C1CCN(c2cccc3c2n(C)c(=O)n3C2CCC(=O)NC2=O)CC1 (some centres unmarked) [I-238]
2,10 to 50 nM,"Cn1c(=O)n(C2CCC(=O)NC2=O)c2cccc(C3C[C@H]4CC[C@@H](C3)N4C[C@H]3CC[C@H](n4cc5cc(NC(=O)c6cccc(C(F)(F)F)n6)ccc5n4)CC3)c21 (single isomer, unassigned) [I-250]"
3,> 200 nM,Cn1c(=O)n(C2CCC(=O)NC2=O)c2cccc(C3CCN(C[C@H]4CC[C@H](n5cc6cc(NC(=O)c7cnccn7)c(F)cc6n5)CC4)CC3)c21 (some centres unmarked) [I-49]
4,10 to 50 nM,Cc1cc2nn([C@H]3CC[C@H](CN4C[C@H]5C[C@@H]4CN5c4cccc5c4n(C)c(=O)n5C4CCC(=O)NC4=O)CC3)cc2cc1NC(=O)c1cccc(C(F)(F)F)n1 (some centres unmarked) [I-389]
5,< 10 nM,COc1cc2nn([C@H]3CC[C@H](CN4CCC(c5cccc6c5n(C)c(=O)n6C5CCC(=O)NC5=O)CC4)CC3)cc2cc1NC(=O)c1nc(C(F)(F)F)cs1 (some centres unmarked) [I-175]
6,< 10 nM,CC(C)Nc1cc(-n2ccc3cc(C#N)cnc32)ncc1-c1cn([C@H]2CC[C@H](CN3CCC(c4cccc5c4n(C)c(=O)n5C4CCC(=O)NC4=O)CC3)CC2)nn1 (some centres unmarked) [I-159]
7,10 to 50 nM,Cn1c(=O)n(C2CCC(=O)NC2=O)c2ccc(F)c(C3CCN(C[C@H]4CC[C@H](n5cc6cc(NC(=O)c7cccc(C(F)(F)F)n7)ccc6n5)CC4)CC3)c21 (some centres unmarked) [I-74]
8,10 to 50 nM,O=C1CCN(c2cncc3c(C4CCN(C[C@H]5CC[C@H](c6nc7cnc(NC(=O)c8cccc(C(F)(F)F)n8)cc7s6)CC5)CC4)cccc23)C(=O)N1 [I-171]
9,> 200 nM,CC(C)Nc1c(C(=O)N[C@H]2CC[C@H](CN3CCN(c4cccc5c(N6CCC(=O)NC6=O)cncc45)CC3)CC2)cnc2c1Oc1ccc(C#N)cc1O2 [I-408]
10,100 to 200 nM,CC(C)(O)c1cc2nn(-c3ccc(CN4CCC5(CCC(Nc6cccc7c6C(=O)N(C6CCC(=O)NC6=O)C7=O)CC5)CC4)cc3)cc2cc1NC(=O)c1cccc(C(F)(F)F)n1 (centres unmarked) [I-462]
11,< 10 nM,COc1cc2nn([C@H]3CC[C@H](CN4CCC(c5c(F)ccc6c5n(C)c(=O)n6C5CCC(=O)NC5=O)CC4)CC3)cc2cc1NC(=O)c1cccc(C(F)(F)F)n1 (some centres unmarked) [I-101]
12,10 to 50 nM,Cc1cccc(C(=O)Nc2cc3sc([C@H]4CC[C@H](C(=O)N5CC6(CCN(CCNc7cccc8c7C(=O)N(C7CCC(=O)NC7=O)C8=O)CC6)C5)CC4)nc3cc2C(C)(C)O)n1 (some centres unmarked) [I-468]
13,< 10 nM,COc1cc2nn([C@H]3CC[C@H](CN4CCN(c5cccc6c(N7CCC(=O)NC7=O)cncc56)[C@@H](C)C4)CC3)cc2cc1NC(=O)c1cccc(C(F)(F)F)n1 [I-233]
14,100 to 200 nM,CC(C)(O)c1cc2nc([C@H]3CC[C@H](C(=O)N4CCC5(CC4)CC(CCNc4cccc6c4C(=O)N(C4CCC(=O)NC4=O)C6=O)C5)CC3)sc2cc1NC(=O)c1cccc(C(F)(F)F)n1 (some centres unmarked) [I-486]
15,< 10 nM,Cn1c(=O)n(C2CCC(=O)NC2=O)c2cccc(N3CCN(C[C@H]4CC[C@H](n5cc6cc(NC(=O)c7cccc(C(F)(F)F)n7)c(S(C)(=O)=O)cc6n5)CC4)CC3)c21 (some centres unmarked) [I-422]
16,50 to 100 nM,CC(C)(O)c1cc2nc([C@H]3CC[C@H](CN4CCO[C@H](CCCNc5cccc6c5C(=O)N(C5CCC(=O)NC5=O)C6=O)C4)CC3)sc2cc1NC(=O)c1cccc(C#N)n1 (some centres unmarked) [I-442]
17,10 to 50 nM,Cc1cccc(C(=O)Nc2cc3sc([C@H]4CC[C@H](CN5CCN(CCCNc6cccc7c6C(=O)N(C6CCC(=O)NC6=O)C7=O)[C@H](C)C5)CC4)nc3cc2C(C)(C)O)n1 (some centres unmarked) [I-452]
18,10 to 50 nM,Cn1c(=O)n(C2CCC(=O)NC2=O)c2cccc(C3CCN(C[C@H]4C[C@H](n5cc6cc(NC(=O)c7cccc(C(F)(F)F)n7)c(Cl)cc6n5)C4)CC3)c21 (some centres unmarked) [I-90]
19,> 200 nM,COc1cc2nn([C@H]3CC[C@H](CN4CCC(c5cccc6c5n(C)c(=O)n6C5CCC(=O)NC5=O)CC4)CC3)cc2cc1NC(=O)c1ccc(C(F)(F)F)nc1 (some centres unmarked) [I-194]
20,< 10 nM,"Cc1cc2nn([C@H]3CC[C@H](CN4CCN(c5cccc6c5n(C)c(=O)n6[C@@H]5CCC(=O)NC5=O)CC4)CC3)cc2cc1NC(=O)c1cccc(C(F)(F)F)n1 [I-400, N-[2-[4-[[4-[1-[(3R)-2,6-dioxo-3-piperidyl]-3-methyl-2-oxo-benzimidazol-4-yl]piperazin-1-yl]methyl]cyclohexyl]-6-methyl-indazol-5-yl]-6-(trifluoromethyl)pyridine-2-carboxamide]"
21,50 to 100 nM,CC(C)(O)c1cc2nc([C@H]3CC[C@H](C(=O)N4CCC(CCNc5cccc6c5C(=O)N(C5CCC(=O)NC5=O)C6=O)CC4)CC3)sc2cc1NC(=O)c1cccc(C(F)(F)F)n1 (some centres unmarked) [I-491]
22,10 to 50 nM,"COc1ccc2c(c1C1CCN(C[C@H]3CC[C@H](n4cc5cc(NC(=O)c6cccc(C(F)(F)F)n6)ncc5n4)CC3)CC1)n(C)c(=O)n2[C@@H]1CCC(=O)NC1=O (single isomer, unassigned) [I-274]"
